These results are taken from PubChem BioAssay (NCI).

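Test compounds were applied to cells in 96-well plates for 48 hours at 5 doses. Abbreviation: GI50, concentration required for 50% inhibition of growth. At the TGI there is no net growth.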

Among the test systems are CCRF-CEM leukemia; A549 NSCLC; SK-MEL-28 melanoma; KM12 colon; BT-549 breast; DU-145 prostate; NCI-H23 lung; HL-60(TB) leukemia; K-562 leukemia; SR leukemia.
Holding throughout (experiment): inhibition of tumour cell growth, NCI panel, 48 h

On to `COc1cc2nc(Nc3cccc(Cl)c3)nc(N)c2cc1OC`, for which the GI50 in the experiment on CCRF-CEM leukemia was 2.36 µM; with A549 NSCLC, 9.89 µM; in the experiment on SK-MEL-28 melanoma, 1.93 µM; with KM12 colon it was 4.07 µM; in the experiment on BT-549 breast, 13.5 µM; in the experiment with DU-145 prostate it was 6.74 µM. The results for the GI50 in the experiment on NCI-H23 lung, with HL-60(TB) leukemia and in the experiment with K-562 leukemia were 14.2 µM, 10.7 µM and 3.67 µM, respectively. The TGI in the experiment with CCRF-CEM leukemia was 7.3 µM; with A549 NSCLC it was 27.3 µM; with SK-MEL-28 melanoma it was 3.78 µM; in the experiment on KM12 colon, 15.7 µM; in the experiment with BT-549 breast, 27.8 µM; in the experiment with DU-145 prostate, 22.8 µM. Moreover, the TGI with NCI-H23 lung is 33.2 µM; in the experiment on HL-60(TB) leukemia, 39.4 µM; in the experiment on K-562 leukemia it was more than 36.1 µM.

Regarding `CN1C(=O)CCC(N2C(=O)c3cccc(NCCOCCOCCNC(=O)c4cc5c(o4)C(=O)c4ccccc4C5=O)c3C2=O)C1=O` (centres undefined), the GI50 is 3.75 µM in the experiment with CCRF-CEM leukemia; 1.99 µM in the experiment with A549 NSCLC; 2.04 µM in the experiment with SK-MEL-28 melanoma; 3.35 µM in the experiment with KM12 colon; 1.38 µM in the experiment with BT-549 breast; 1.5 µM with DU-145 prostate. For the same molecule, the GI50 in the experiment on HL-60(TB) leukemia was 2.03 µM; in the experiment with K-562 leukemia, 2.13 µM; in the experiment on SR leukemia it was 1.99 µM. For the same molecule, the TGI worked out at 24.4 µM in the experiment on CCRF-CEM leukemia; 4.49 µM in the experiment on A549 NSCLC; 4.27 µM in the experiment on SK-MEL-28 melanoma; 12.6 µM with KM12 colon; 2.7 µM in the experiment with BT-549 breast; 2.89 µM in the experiment with DU-145 prostate. Moreover, the TGI was determined as 5.88 µM in the experiment with HL-60(TB) leukemia, 6.52 µM in the experiment with K-562 leukemia and 7.5 µM in the experiment on SR leukemia.

In the case of `CC(=O)O.CN1[CH-]N(Cc2ccc(C#N)cc2)c2ccccc21.[Ag+]`, the GI50 is 22.2 µM in the experiment with CCRF-CEM leukemia; 32.3 µM in the experiment with A549 NSCLC; 16.7 µM in the experiment on SK-MEL-28 melanoma; more than 100 µM with KM12 colon; 18.8 µM in the experiment on BT-549 breast; 17.7 µM with DU-145 prostate. For the same molecule, the GI50 is 20.8 µM with NCI-H23 lung, 20.3 µM in the experiment on HL-60(TB) leukemia and 18 µM in the experiment with K-562 leukemia. The TGI with CCRF-CEM leukemia was 61.1 µM; in the experiment on A549 NSCLC, more than 100 µM; in the experiment with SK-MEL-28 melanoma, 32.1 µM; in the experiment on KM12 colon, more than 100 µM; with BT-549 breast it was 38.4 µM; with DU-145 prostate, 32.6 µM. The TGI in the experiment with NCI-H23 lung was determined as 58 µM; in the experiment on HL-60(TB) leukemia it was 45.9 µM; in the experiment on K-562 leukemia, 46 µM.

As for `Cc1ccc(CNc2ccc3nc(CCC4CCCCC4)[nH]c3c2)cc1`, the GI50 was 3.29 µM with CCRF-CEM leukemia; 3.02 µM with A549 NSCLC; 2.83 µM in the experiment on KM12 colon; 2.45 µM in the experiment on BT-549 breast; 3.73 µM in the experiment with DU-145 prostate; 2.1 µM in the experiment on NCI-H23 lung. Besides, the GI50 in the experiment on HL-60(TB) leukemia is 1.98 µM; with K-562 leukemia, 2.1 µM; with SR leukemia it was 2.91 µM. Also, the TGI with CCRF-CEM leukemia was more than 100 µM; in the experiment on A549 NSCLC it was 17.6 µM; in the experiment on KM12 colon, 9.05 µM; in the experiment with BT-549 breast, 7.34 µM; in the experiment with DU-145 prostate, more than 100 µM; in the experiment with NCI-H23 lung it was 4.88 µM. The figures for the TGI with HL-60(TB) leukemia, with K-562 leukemia and in the experiment on SR leukemia were 4.62 µM, 5.47 µM and 8.74 µM, respectively.

Regarding `Oc1ccccc1-c1nn(CNc2ccc(Cl)cc2)c(=S)o1`, the GI50 in the experiment on CCRF-CEM leukemia was more than 100 µM; in the experiment on A549 NSCLC, 26.3 µM; with KM12 colon, 11.7 µM; in the experiment with BT-549 breast, 61.1 µM; in the experiment on NCI-H23 lung, 0.511 µM; in the experiment with K-562 leukemia, 0.263 µM. Further, the GI50 with SR leukemia is 16 µM. Moreover, the TGI was more than 100 µM in the experiment with CCRF-CEM leukemia; 99.2 µM in the experiment on A549 NSCLC; more than 100 µM in the experiment with KM12 colon; more than 100 µM with BT-549 breast; 64.5 µM in the experiment on NCI-H23 lung; more than 100 µM in the experiment with K-562 leukemia. This molecule returned a TGI in the experiment with SR leukemia of 43.4 µM.

With `COc1ccc2c(c1)CCC1C2CC[C@@]2(C)C1CC[C@@H]2NC(=O)Cc1ccc(O)c(O)c1` (some centres undefined), the GI50 in the experiment on CCRF-CEM leukemia was 2.86 µM; with A549 NSCLC, 14.6 µM; in the experiment with SK-MEL-28 melanoma, 9.9 µM; in the experiment with KM12 colon, 5.47 µM; with BT-549 breast, 9.66 µM; in the experiment with DU-145 prostate, 8.47 µM. Further, the GI50 in the experiment with NCI-H23 lung was 11.9 µM; in the experiment on K-562 leukemia, 4.31 µM; with SR leukemia it was 3.46 µM. The TGI in the experiment on CCRF-CEM leukemia worked out at 17.6 µM; with A549 NSCLC, 29.9 µM; in the experiment on SK-MEL-28 melanoma it was 24.2 µM; in the experiment on KM12 colon, 21.7 µM; in the experiment on BT-549 breast it was 25.5 µM; with DU-145 prostate, 20.8 µM. In addition, the TGI in the experiment with NCI-H23 lung was 27.6 µM; with K-562 leukemia it was more than 100 µM; with SR leukemia, 18.7 µM.

Take `CC1=C([Te]c2ccccc2)C(=O)c2ccccc2C1=O`: the GI50 in the experiment on CCRF-CEM leukemia was 0.312 µM; in the experiment on A549 NSCLC, 0.298 µM; with SK-MEL-28 melanoma it was 1.25 µM; in the experiment on KM12 colon, 0.337 µM; in the experiment with BT-549 breast, 0.232 µM; with DU-145 prostate, 0.424 µM. The GI50 in the experiment on NCI-H23 lung was 0.298 µM; in the experiment with HL-60(TB) leukemia, 0.326 µM; with K-562 leukemia, 1.07 µM. Moreover, the TGI in the experiment with CCRF-CEM leukemia came out at 3.3 µM; with A549 NSCLC, 1.23 µM; in the experiment on SK-MEL-28 melanoma, 3.11 µM; in the experiment on KM12 colon, 1.21 µM; in the experiment with BT-549 breast it was 0.842 µM; in the experiment with DU-145 prostate it was 1.58 µM. Moreover, the TGI with NCI-H23 lung was 1.05 µM; in the experiment with HL-60(TB) leukemia, 1.54 µM; in the experiment with K-562 leukemia, 3.4 µM.

With `NC(=O)CC1OC(=O)Cc2cc3c(c(O)c21)C(=O)c1c(O)cccc1C3=O` (centres undefined), the TGI in the experiment on CCRF-CEM leukemia, with A549 NSCLC, with SK-MEL-28 melanoma, in the experiment with BT-549 breast, in the experiment with DU-145 prostate and in the experiment with NCI-H23 lung was more than 100 µM each time. The TGI in the experiment with HL-60(TB) leukemia, in the experiment on K-562 leukemia and with SR leukemia was more than 100 µM each time.

As to `CCC(CC)n1cnc2c(-c3cnc(N)cn3)nc(N3CC4CCC(C3)O4)nc21`, the GI50 with CCRF-CEM leukemia is 0.443 µM; with A549 NSCLC, 0.405 µM; in the experiment with KM12 colon it was 0.377 µM; in the experiment with BT-549 breast, 0.108 µM; in the experiment on DU-145 prostate it was 0.93 µM; with NCI-H23 lung, 0.56 µM. Moreover, the GI50 in the experiment on HL-60(TB) leukemia was 1.41 µM; in the experiment on K-562 leukemia it was 0.854 µM; with SR leukemia, 0.351 µM. The TGI with CCRF-CEM leukemia was more than 100 µM; in the experiment on A549 NSCLC, more than 100 µM; in the experiment on KM12 colon, more than 100 µM; in the experiment on BT-549 breast, 2.5 µM; in the experiment on DU-145 prostate it was more than 100 µM; in the experiment on NCI-H23 lung, more than 100 µM. For the same molecule, the TGI with HL-60(TB) leukemia, in the experiment with K-562 leukemia and in the experiment on SR leukemia was more than 100 µM in each case.
